# Values of other authors in patent US9399044B2, “Antimicrobial cationic polyamines” (International Business Machines Corporation, priority 2014, dated 2016).
# Tested on: mouse
# Details: commercially available compounds, source NIH
row,SMILES,Mouse Intravenous LD50
1,CC[C@@H](CO)NCCN[C@@H](CC)CO [Ethambutol],240 mg/kg
2,NNC(=O)c1ccncc1 [Isoniazid],149 mg/kg
3,CO[C@H]1/C=C/O[C@@]2(C)Oc3c(C)c(O)c4c(O)c(c(/C=N/N5CCN(C)CC5)c(O)c4c3C2=O)NC(=O)/C(C)=C\C=C\[C@H](C)[C@H](O)[C@@H](C)[C@@H](O)[C@@H](C)[C@H](OC(C)=O)[C@@H]1C [Rifampin],260 mg/kg
4,CN(Cc1cnc2nc(N)nc(N)c2n1)c1ccc(C(=O)N[C@@H](CCC(=O)O)C(=O)O)cc1 [Methotrexate],65 mg/kg
5,CN1CCCC1c1cccnc1 (centres unmarked) [Nicotine],0.3 mg/kg
